Measured values published in PubChem BioAssay AID2060511 (Molecular Pharmacology Branch, DTP, NCI, 2025).

System: 422866-222-R5-J1-PDC spheroids with HUVEC/MSC, viability
Assay: Anticancer human tumor 422866-222-R5-J1-PDC patient-derived pancreatic adenocarcinoma cell line growth inhibition [GQUAD]
Details: for IC50: curve of first compound; for viability, T/C: stronger effect = lower value
Procedure, shortened: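 Viability of tumor cells grown as complex spheroids with endothelial and stromal cells, exposed to drug combinations. Top concentration at or near clinical Cmax (else 10 microM), diluted in half-log increments.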

[1] = second compound 0.0316 µM, first compound 0.0316 µM
[2] = second compound 0.0316 µM, first compound 0.1 µM
[3] = second compound 0.0316 µM, first compound 0.316 µM
[4] = second compound 0.0316 µM, first compound 1 µM
[5] = second compound 0.0316 µM, first compound 3.16 µM
[6] = second compound 0.0316 µM, first compound 10 µM
[7] = second compound 0.1 µM, first compound 0.0316 µM
[8] = second compound 0.1 µM, first compound 0.1 µM
[9] = second compound 0.1 µM, first compound 0.316 µM
[10] = second compound 0.1 µM, first compound 1 µM
[11] = second compound 0.1 µM, first compound 3.16 µM
[12] = second compound 0.1 µM, first compound 10 µM
[13] = second compound 0.316 µM, first compound 0.0316 µM
[14] = second compound 0.316 µM, first compound 0.1 µM
[15] = second compound 0.316 µM, first compound 0.316 µM
[16] = second compound 0.316 µM, first compound 1 µM
[17] = second compound 0.316 µM, first compound 3.16 µM
[18] = second compound 0.316 µM, first compound 10 µM
[19] = second compound 1 µM, first compound 0.0316 µM
[20] = second compound 1 µM, first compound 0.1 µM
[21] = second compound 1 µM, first compound 0.316 µM
[22] = second compound 1 µM, first compound 1 µM
[23] = second compound 1 µM, first compound 3.16 µM
[24] = second compound 1 µM, first compound 10 µM
[25] = second compound 3.16 µM, first compound 0.0316 µM
[26] = second compound 3.16 µM, first compound 0.1 µM
[27] = second compound 3.16 µM, first compound 0.316 µM
[28] = second compound 3.16 µM, first compound 1 µM
[29] = second compound 3.16 µM, first compound 3.16 µM
[30] = second compound 3.16 µM, first compound 10 µM
[31] = second compound 10 µM, first compound 0.0316 µM
[32] = second compound 10 µM, first compound 0.1 µM
[33] = second compound 10 µM, first compound 0.316 µM
[34] = second compound 10 µM, first compound 1 µM
[35] = second compound 10 µM, first compound 3.16 µM
[36] = second compound 10 µM, first compound 10 µM
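Also: spheroids exposed to compounds for seven days before reading.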
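For viability, T/C in this document: percent viability relative to DMSO vehicle control taken as 100%.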

With `C#Cc1c(F)ccc2cc(O)cc(-c3ncc4c(N5CC6CCC(C5)N6)nc(OCC56CCCN5CC(F)C6)nc4c3F)c12` (stereo unspecified) + Cc1[nH]c2ccc(F)cc2c1-c1nc2c3cccnc3c3ncccc3c2[nH]1 as the compound, how does the IC50 (second compound 0.0316 µM) read?
Its IC50 is 2180 nM.

What about the IC50 (second compound 0.1 µM) of the same compound?
The IC50 was 2230 nM.

And the IC50 (second compound 0.316 µM)?
The IC50 was 1930 nM.

And the IC50 (second compound 1 µM)?
The IC50 was 2160 nM.

What about the IC50 (second compound 3.16 µM) of the same compound?
The IC50 was 736 nM.

And the IC50 (second compound 10 µM)?
The IC50 was 998 nM.

What about the viability, T/C [1] of the same compound?
The viability, T/C was 96.1%.

And the viability, T/C [2]?
The viability, T/C was 96.4%.

What about the viability, T/C [3] of the same compound?
Its viability, T/C is 84.4%.

And the viability, T/C [4]?
Its viability, T/C is 78%.

And the viability, T/C [5]?
The viability, T/C was 30.2%.

And the viability, T/C [6]?
Its viability, T/C is 43.2%.

What about the viability, T/C [7] of the same compound?
The viability, T/C was 106%.

What about the viability, T/C [8] of the same compound?
Its viability, T/C is 92.1%.

What about the viability, T/C [9] of the same compound?
The viability, T/C was 98.4%.

And the viability, T/C [10]?
The viability, T/C was 75.3%.

And the viability, T/C [11]?
Its viability, T/C is 39.1%.

What about the viability, T/C [12] of the same compound?
Its viability, T/C is 33.4%.

What about the viability, T/C [13] of the same compound?
Its viability, T/C is 106%.

What about the viability, T/C [14] of the same compound?
Its viability, T/C is 86%.

What about the viability, T/C [15] of the same compound?
Its viability, T/C is 84%.

And the viability, T/C [16]?
The viability, T/C was 64.4%.

And the viability, T/C [17]?
The viability, T/C was 35%.

And the viability, T/C [18]?
Its viability, T/C is 37.4%.

What about the viability, T/C [19] of the same compound?
Its viability, T/C is 75.9%.

And the viability, T/C [20]?
Its viability, T/C is 98.3%.

And the viability, T/C [21]?
The viability, T/C was 91.6%.

And the viability, T/C [22]?
Its viability, T/C is 69%.

And the viability, T/C [23]?
Its viability, T/C is 40.4%.

And the viability, T/C [24]?
Its viability, T/C is 40.8%.

And the viability, T/C [25]?
The viability, T/C was 87.2%.

And the viability, T/C [26]?
Its viability, T/C is 75.5%.

And the viability, T/C [27]?
Its viability, T/C is 70.6%.

What about the viability, T/C [28] of the same compound?
Its viability, T/C is 42.8%.

What about the viability, T/C [29] of the same compound?
Its viability, T/C is 30.7%.

What about the viability, T/C [30] of the same compound?
Its viability, T/C is 34.6%.

What about the viability, T/C [31] of the same compound?
The viability, T/C was 71.3%.

And the viability, T/C [32]?
The viability, T/C was 57.6%.

And the viability, T/C [33]?
Its viability, T/C is 67%.

And the viability, T/C [34]?
The viability, T/C was 46.9%.

What about the viability, T/C [35] of the same compound?
The viability, T/C was 39.4%.

And the viability, T/C [36]?
Its viability, T/C is 38%.

How did the IC50 (second compound 0.0316 µM) turn out when `C=CCn1c(=O)c2cnc(Nc3ccc(N4CCN(C)CC4)cc3)nc2n1-c1cccc(C(C)(C)O)n1` + Cc1[nH]c2ccc(F)cc2c1-c1nc2c3cccnc3c3ncccc3c2[nH]1 was run?
Its IC50 is greater than 10000 nM.

What about the IC50 (second compound 0.1 µM) of the same compound?
Its IC50 is greater than 10000 nM.

And the IC50 (second compound 0.316 µM)?
The IC50 was greater than 10000 nM.

What about the IC50 (second compound 1 µM) of the same compound?
The IC50 was greater than 10000 nM.

What about the IC50 (second compound 3.16 µM) of the same compound?
Its IC50 is greater than 10000 nM.

What about the IC50 (second compound 10 µM) of the same compound?
The IC50 was greater than 10000 nM.

What about the viability, T/C [1] of the same compound?
The viability, T/C was 103%.

What about the viability, T/C [2] of the same compound?
Its viability, T/C is 110%.

And the viability, T/C [3]?
The viability, T/C was 167%.

And the viability, T/C [4]?
Its viability, T/C is 125%.

What about the viability, T/C [5] of the same compound?
The viability, T/C was 157%.

And the viability, T/C [6]?
The viability, T/C was 91.9%.

And the viability, T/C [7]?
The viability, T/C was 112%.

What about the viability, T/C [8] of the same compound?
The viability, T/C was 101%.

And the viability, T/C [9]?
The viability, T/C was 127%.

And the viability, T/C [10]?
Its viability, T/C is 146%.

And the viability, T/C [11]?
The viability, T/C was 183%.

What about the viability, T/C [12] of the same compound?
The viability, T/C was 107%.

And the viability, T/C [13]?
The viability, T/C was 101%.

What about the viability, T/C [14] of the same compound?
The viability, T/C was 127%.

What about the viability, T/C [15] of the same compound?
Its viability, T/C is 126%.

And the viability, T/C [16]?
The viability, T/C was 130%.

What about the viability, T/C [17] of the same compound?
The viability, T/C was 202%.

And the viability, T/C [18]?
The viability, T/C was 112%.

What about the viability, T/C [19] of the same compound?
The viability, T/C was 89.3%.

And the viability, T/C [20]?
Its viability, T/C is 122%.

And the viability, T/C [21]?
The viability, T/C was 120%.

And the viability, T/C [22]?
The viability, T/C was 121%.

And the viability, T/C [23]?
Its viability, T/C is 194%.

And the viability, T/C [24]?
The viability, T/C was 122%.

What about the viability, T/C [25] of the same compound?
The viability, T/C was 75.5%.

And the viability, T/C [26]?
The viability, T/C was 74.5%.

What about the viability, T/C [27] of the same compound?
The viability, T/C was 85.2%.

What about the viability, T/C [28] of the same compound?
Its viability, T/C is 117%.

What about the viability, T/C [29] of the same compound?
Its viability, T/C is 122%.

What about the viability, T/C [30] of the same compound?
The viability, T/C was 76.9%.

What about the viability, T/C [31] of the same compound?
The viability, T/C was 70.5%.

What about the viability, T/C [32] of the same compound?
Its viability, T/C is 51.5%.

And the viability, T/C [33]?
Its viability, T/C is 85.7%.

And the viability, T/C [34]?
Its viability, T/C is 68.5%.

What about the viability, T/C [35] of the same compound?
Its viability, T/C is 105%.

What about the viability, T/C [36] of the same compound?
The viability, T/C was 79.3%.

How did the IC50 (second compound 0.0316 µM) turn out when `CCCS(=O)(=O)Nc1ccc(F)c(C(=O)c2c[nH]c3ncc(-c4ccc(Cl)cc4)cc23)c1F` + Cc1[nH]c2ccc(F)cc2c1-c1nc2c3cccnc3c3ncccc3c2[nH]1 was run?
Its IC50 is 559 nM.

And the IC50 (second compound 0.1 µM)?
Its IC50 is 1020 nM.

And the IC50 (second compound 0.316 µM)?
The IC50 was 1100 nM.

What about the IC50 (second compound 1 µM) of the same compound?
The IC50 was 591 nM.

And the IC50 (second compound 3.16 µM)?
Its IC50 is 293 nM.

And the IC50 (second compound 10 µM)?
The IC50 was 139 nM.

What about the viability, T/C [1] of the same compound?
The viability, T/C was 114%.

And the viability, T/C [2]?
The viability, T/C was 93.4%.

And the viability, T/C [3]?
The viability, T/C was 61.5%.

And the viability, T/C [4]?
The viability, T/C was 37.4%.

And the viability, T/C [5]?
The viability, T/C was 34.5%.

And the viability, T/C [6]?
Its viability, T/C is 36.7%.

What about the viability, T/C [7] of the same compound?
The viability, T/C was 110%.

What about the viability, T/C [8] of the same compound?
The viability, T/C was 88.5%.

And the viability, T/C [9]?
The viability, T/C was 61.4%.

And the viability, T/C [10]?
The viability, T/C was 52.4%.

What about the viability, T/C [11] of the same compound?
Its viability, T/C is 40.6%.

And the viability, T/C [12]?
The viability, T/C was 32.3%.

And the viability, T/C [13]?
The viability, T/C was 134%.

And the viability, T/C [14]?
The viability, T/C was 95.6%.

And the viability, T/C [15]?
The viability, T/C was 75.6%.

And the viability, T/C [16]?
The viability, T/C was 43.8%.

What about the viability, T/C [17] of the same compound?
The viability, T/C was 43.4%.

What about the viability, T/C [18] of the same compound?
Its viability, T/C is 29%.

What about the viability, T/C [19] of the same compound?
Its viability, T/C is 85.2%.

And the viability, T/C [20]?
Its viability, T/C is 90.3%.

What about the viability, T/C [21] of the same compound?
Its viability, T/C is 63.1%.

What about the viability, T/C [22] of the same compound?
The viability, T/C was 41.5%.

What about the viability, T/C [23] of the same compound?
Its viability, T/C is 38.1%.

And the viability, T/C [24]?
Its viability, T/C is 37%.

And the viability, T/C [25]?
Its viability, T/C is 67.3%.

What about the viability, T/C [26] of the same compound?
Its viability, T/C is 52.8%.

What about the viability, T/C [27] of the same compound?
The viability, T/C was 53.1%.

What about the viability, T/C [28] of the same compound?
Its viability, T/C is 45.2%.

And the viability, T/C [29]?
The viability, T/C was 43%.

And the viability, T/C [30]?
The viability, T/C was 41.9%.

And the viability, T/C [31]?
Its viability, T/C is 58.2%.

What about the viability, T/C [32] of the same compound?
The viability, T/C was 50.8%.

And the viability, T/C [33]?
Its viability, T/C is 47.5%.

And the viability, T/C [34]?
The viability, T/C was 50.3%.

And the viability, T/C [35]?
The viability, T/C was 43.2%.

What about the viability, T/C [36] of the same compound?
The viability, T/C was 49.9%.
